# In the supplement of paper PMC10307832:
# Columns and labels:
# Assay in all cases: relative viability (nuclei count vs DMSO), 5 days (fraction); higher = more cells survive
# [1] = compound: C1/C(=C\C2=CC=CS2)/C(=O)/C(=C/C3=CC=CS3)/C1 + O=C(CCCCCCC(=O)Nc1ccccc1)NO [Vorinostat] (partner 1 µM)
# Procedure, shortened: (§1)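 Cells from lung cancer lines were seeded into 1536-well plates and, one day later, dosed by pin tool. Treatments were either a single drug or a fixed dose of an anchor drug with five library-drug doses (not always all listed) in √10 steps. After 5 days, nuclei were stained in a one-step fixation (final 0.05% Triton X-100, 1% formaldehyde, 1 ug/ml Hoechst) and counted on 4× images, and relative viability is the treated-to-vehicle nuclei ratio, as the median of duplicate plates.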
# TPCA-1 + Bortezomib = compound: C1=CC(=CC=C1C2=CC(=C(S2)NC(=O)N)C(=O)N)F [TPCA-1] + CC(C)C[C@H](NC(=O)[C@H](Cc1ccccc1)NC(=O)c1cnccn1)B(O)O [Bortezomib] (partner 0.002 µM)
# Procedure, shortened: as §1
# [2] = compound: C1/C(=C\C2=CC=CS2)/C(=O)/C(=C/C3=CC=CS3)/C1 + NC(=O)Nc1cc(-c2cccc(F)c2)sc1C(=O)N[C@H]1CCCNC1 [AZD7762] (partner 0.2 µM)
# Procedure, shortened: as §1
# TPCA-1 + Alpelisib = compound: C1=CC(=CC=C1C2=CC(=C(S2)NC(=O)N)C(=O)N)F [TPCA-1] + Cc1nc(NC(=O)N2CCC[C@H]2C(N)=O)sc1-c1ccnc(C(C)(C)C(F)(F)F)c1 [Alpelisib] (partner 2 µM)
# Procedure, shortened: as §1
Cell Line,relative viability ([1]; first compound 0.2 µM),relative viability ([1]; first compound 0.6325 µM),relative viability ([1]; first compound 2 µM),relative viability ([1]; first compound 6.325 µM),relative viability ([1]; first compound 20 µM),relative viability (TPCA-1 + Bortezomib; first compound 0.04 µM),relative viability (TPCA-1 + Bortezomib; first compound 0.1265 µM),relative viability (TPCA-1 + Bortezomib; first compound 0.4 µM),relative viability (TPCA-1 + Bortezomib; first compound 1.265 µM),relative viability (TPCA-1 + Bortezomib; first compound 4 µM),relative viability ([2]; first compound 0.2 µM),relative viability ([2]; first compound 0.6325 µM),relative viability ([2]; first compound 2 µM),relative viability ([2]; first compound 6.325 µM),relative viability ([2]; first compound 20 µM),relative viability (TPCA-1 + Alpelisib; first compound 0.04 µM),relative viability (TPCA-1 + Alpelisib; first compound 0.1265 µM),relative viability (TPCA-1 + Alpelisib; first compound 0.4 µM),relative viability (TPCA-1 + Alpelisib; first compound 1.265 µM),relative viability (TPCA-1 + Alpelisib; first compound 4 µM)
201T,0.965,0.951,1.07,0.728,0.935,1.12,1.1,1.19,1.12,1.12,0.626,0.704,0.689,0.411,0.58,1,0.998,1.01,1.08,0.983
A549,,,,,,,,,,,,,,,,0.891,0.824,0.911,0.736,0.296
A-427,0.884,0.838,0.855,0.828,0.89,1.05,0.981,1.08,0.976,1.07,0.78,0.836,0.822,0.724,0.72,1.13,1.04,1.14,1.06,1.06
ABC-1,1.17,0.964,1.5,0.724,1.24,0.369,0.225,0.291,0.297,0.293,1.01,1.04,0.905,0.528,1,1.38,0.98,0.847,0.967,0.591
BEN,0.64,0.537,0.661,0.566,0.535,1.17,0.53,0.805,0.999,0.587,0.739,0.635,0.774,0.643,0.679,1.14,0.842,1.13,1.19,0.806
CAL-12T,0.724,0.91,0.648,0.77,0.788,1.07,0.941,1.03,0.767,0.607,0.597,0.84,0.592,0.537,0.547,1.22,0.907,0.93,1.1,0.707
COR-L23,0.475,0.597,0.477,0.348,0.451,1.27,0.854,0.983,0.937,0.751,,,,,,0.904,0.812,0.72,0.632,0.421
COR-L 105,0.653,0.969,0.852,0.391,0.669,0.846,0.808,0.982,0.516,0.333,,,,,,1.07,0.892,0.987,0.919,0.898
Calu-6,,,,,,1.1,0.933,1.09,0.873,0.658,,,,,,0.982,0.988,1.04,0.85,0.539
ChaGo-K-1,0.761,0.749,0.703,0.511,0.254,0.83,0.995,1.11,0.903,0.377,0.91,0.9,0.873,0.581,0.51,,,,,
EBC-1,,,,,,0.521,0.617,0.618,0.59,0.479,,,,,,0.843,0.77,0.892,0.933,0.626
EKVX,0.893,0.625,0.873,,0.678,0.952,0.896,1.19,0.955,0.601,0.631,0.685,0.764,,0.695,0.913,0.838,0.934,0.726,0.795
EMC-BAC-2,0.351,0.473,0.453,0.455,0.489,1.12,1.07,1.11,1.08,0.932,1.19,1.1,1.09,0.91,1.12,0.791,0.705,0.721,0.724,0.589
EPLC-272H,0.464,0.384,0.615,0.318,0.358,0.96,0.974,0.962,0.87,0.821,0.179,0.276,0.182,0.221,0.183,1.09,0.793,1.06,0.851,0.863
H3255,0.756,0.856,0.427,0.758,0.875,0.872,0.758,0.701,0.595,0.691,0.916,0.878,0.945,0.842,0.914,0.784,0.655,0.642,0.529,0.554
HARA,0.722,0.498,0.641,0.485,0.458,1.08,1.13,1.14,1.03,1.07,0.431,0.271,0.319,0.361,0.336,0.952,0.675,1.01,0.725,0.6
HCC-15,0.876,0.846,0.842,0.772,0.743,1.21,0.944,1.06,1.01,0.817,1.14,1.33,1.41,1.06,1.13,0.862,0.705,0.915,0.863,0.779
HCC-44,1.09,1.08,1.01,0.995,1.03,0.903,0.789,0.908,0.745,0.883,1.03,1.03,0.857,0.84,1.03,0.876,0.765,0.838,0.703,0.66
HCC-78,0.51,0.401,0.441,0.425,0.385,0.437,0.439,0.531,0.27,0.281,0.649,0.729,0.76,0.68,0.658,0.36,0.315,0.362,0.311,0.262
